What was measured:
[1] = system: antibodies in sera from SARS patients (sera 1a, 1b, 2, 6, 37, 62, London, SARS-yellow, SARS-green); format: binding, human; set-up: Binding of serum 6 to linear peptides of protein X1 of SARS-CoV Urbani / Binding of serum 37 to linear peptides of protein X1 of SARS-CoV Urbani / Binding of serum 6 to looped/cyclic peptide (PEPSCAN-ELISA) / Binding of serum 37 to looped/cyclic peptide (PEPSCAN-ELISA) / Binding of serum 37 to looped/cyclic peptides of protein X1 of SARS-CoV Urbani / Binding of serum 6 to linear peptides of protein X2 / Binding of serum 37 to linear peptides of protein X2 / Binding of serum 37 to looped/cyclic peptides of protein X2 of SARS-CoV Urbani / Binding of serum 6 to linear peptides of protein M of SARS-CoV Urbani / Binding of serum 37 to linear peptides of protein M of SARS-CoV Urbani / Binding of serum 6 to looped/cyclic peptides of protein M of SARS-CoV Urbani / Binding of serum 37 to looped/cyclic peptides of protein M of SARS-CoV Urbani / Binding of serum 6 to linear peptides of protein X3 of SARS-CoV Urbani / Binding of serum 37 to linear peptides of protein X3 of SARS-CoV Urbani / Binding of serum 37 to looped/cyclic peptides of protein X3 of SARS-CoV Urbani / Binding of serum 6 to linear peptides of protein X4 of SARS-CoV Urbani / Binding of serum 37 to linear peptides of protein X4 of SARS-CoV Urbani / Binding of serum 37 to looped/cyclic peptides of protein X4 of SARS-CoV Urbani / Binding of serum 6 to linear peptides of protein X5 of SARS-CoV Urbani / Binding of serum 37 to linear peptides of protein X5 of SARS-CoV Urbani / Binding of serum 37 to looped/cyclic peptides of protein X5 of SARS-CoV Urbani / Binding of serum 6 to linear peptides of protein N of SARS-CoV Urbani / Binding of serum 37 to linear peptides of protein N of SARS-CoV Urbani / Binding of serum 6 to linear peptide (PEPSCAN-ELISA) / Binding of serum 1a to looped/cyclic peptides of protein N of SARS-CoV Urbani / Binding of serum 1b to looped/cyclic peptides of protein N of SARS-CoV Urbani / Binding of serum 2 to looped/cyclic peptides of protein N of SARS-CoV Urbani / Binding of serum 6 to looped/cyclic peptides of protein N of SARS-CoV Urbani / Binding of serum 37 to looped/cyclic peptides of protein N of SARS-CoV Urbani / Binding of serum 62 to looped/cyclic peptides of protein N of SARS-CoV Urbani / Binding of serum London to looped/cyclic peptides of protein N of SARS-CoV Urbani / Binding of serum SARS-green to looped/cyclic peptides of protein N of SARS-CoV Urbani: unit not given here
[2] = system: control sera (pooled serum of ten healthy LUMC hospital workers; commercial negative donor pooled serum from the Dutch bloodbank); format: binding, human; set-up: Binding of Control serum LUMC to linear peptides / Binding of Control serum Blood-bank to linear peptides / Binding of Control serum LUMC to looped peptides / Binding of Control Serum Blood-Bank to Looped peptides / Binding of Control serum LUMC to linear peptides of the protein M of SARS-CoV Urbani / Binding of Control serum Blood-bank to linear peptides of the protein M of SARS-CoV Urbani / Binding of Control serum LUMC to looped peptides of the protein M of SARS-CoV Urbani / Binding of Control Serum Blood-Bank to Looped peptides of the protein M of SARS-CoV Urbani: unit not given here
[3] = system: rabbit serum obtained by immunizing a rabbit with the SARS-CoV strain Frankfurt 1; format: binding; set-up: Binding of a rabbit serum to linear peptides / Binding of a rabbit serum to looped peptides / Rabbit serum linear peptides / Rabbit serum looped peptides / Binding of a rabbit serum to linear peptides of protein N of SARS-CoV Urbani (Rabbit serum linear peptides) / Binding of a rabbit serum to looped/cyclic peptides of protein N of SARS-CoV Urbani (Rabbit serum looped peptides): unit not given here

QELLIQQWIQFMMSR
Binding of serum 1a to linear peptides of protein X2 [1]: 0.7
Binding of serum 1a to looped/cyclic peptides of protein X2 of SARS-CoV Urbani [1]: 0.5
Binding of serum 1b to linear peptides of protein X2 [1]: 0.4
Binding of serum 1b to looped/cyclic peptides of protein X2 of SARS-CoV Urbani [1]: 0.5
Binding of serum 2 to linear peptides of protein X2 [1]: 0.4
Binding of serum 2 to looped/cyclic peptides of protein X2 of SARS-CoV Urbani [1]: 0.6
Binding of serum 6 to linear peptides of protein X2 [1]: 0.3
Binding of serum 6 to looped/cyclic peptides of protein X2 of SARS-CoV Urbani [1]: 0.6
Binding of serum 37 to linear peptides of protein X2 [1]: 0.5
Binding of serum 37 to looped/cyclic peptides of protein X2 of SARS-CoV Urbani [1]: 0.5
Binding of serum 62 to linear peptides of protein X2 [1]: 0.5
Binding of serum 62 to looped/cyclic peptides of protein X2 of SARS-CoV Urbani [1]: 0.7
Binding of serum London to linear peptides of protein X2 [1]: 0.4
Binding of serum London to looped/cyclic peptides of protein X2 of SARS-CoV Urbani [1]: 1.2
Binding of serum SARS-green to linear peptides of protein X2 [1]: 0.6
Binding of serum SARS-green to looped/cyclic peptides of protein X2 of SARS-CoV Urbani [1]: 0.3
Binding of serum SARS-yellow to linear peptides of protein X2 [1]: 0.6
Binding of serum SARS-yellow to looped/cyclic peptides of protein X2 of SARS-CoV Urbani [1]: 0.5
Binding of Control Serum Blood-Bank to Looped peptides [2]: 0.7
Binding of Control serum Blood-bank to linear peptides [2]: 0.5
Binding of Control serum LUMC to linear peptides [2]: 0.3
Binding of Control serum LUMC to looped peptides [2]: 0.5
Binding of a rabbit serum to linear peptides [3]: 0.3
Binding of a rabbit serum to looped peptides [3]: 0.4

QELYSPLFLIVAALV
Binding of serum 1a to linear peptides of protein X4 of SARS-CoV Urbani [1]: 0.7
Binding of serum 1a to looped/cyclic peptides of protein X4 of SARS-CoV Urbani [1]: 0.6
Binding of serum 1b to linear peptides of protein X4 of SARS-CoV Urbani [1]: 0.5
Binding of serum 1b to looped/cyclic peptides of protein X4 of SARS-CoV Urbani [1]: 0.4
Binding of serum 2 to linear peptides of protein X4 of SARS-CoV Urbani [1]: 0.8
Binding of serum 2 to looped/cyclic peptides of protein X4 of SARS-CoV Urbani [1]: 0.6
Binding of serum 6 to linear peptides of protein X4 of SARS-CoV Urbani [1]: 0.6
Binding of serum 6 to looped/cyclic peptides of protein X4 of SARS-CoV Urbani [1]: 0.3
Binding of serum 37 to linear peptides of protein X4 of SARS-CoV Urbani [1]: 0.7
Binding of serum 37 to looped/cyclic peptides of protein X4 of SARS-CoV Urbani [1]: 0.6
Binding of serum 62 to linear peptides of protein X4 of SARS-CoV Urbani [1]: 0.7
Binding of serum 62 to looped/cyclic peptides of protein X4 of SARS-CoV Urbani [1]: 0.6
Binding of serum London to linear peptides of protein X4 of SARS-CoV Urbani [1]: 0.7
Binding of serum London to looped/cyclic peptides of protein X4 of SARS-CoV Urbani [1]: 0.3
Binding of serum SARS-green to linear peptides of protein X4 of SARS-CoV Urbani [1]: 0.5
Binding of serum SARS-green to looped/cyclic peptides of protein X4 of SARS-CoV Urbani [1]: 0.6
Binding of serum SARS-yellow to linear peptides of protein X4 of SARS-CoV Urbani [1]: 0.2
Binding of serum SARS-yellow to looped/cyclic peptides of protein X4 of SARS-CoV Urbani [1]: 0.5
Binding of Control Serum Blood-Bank to Looped peptides [2]: 0.7
Binding of Control serum Blood-bank to linear peptides [2]: 0.6
Binding of Control serum LUMC to linear peptides [2]: 0.6
Binding of Control serum LUMC to looped peptides [2]: 0.7
Rabbit serum linear peptides [3]: 0.4
Rabbit serum looped peptides [3]: 0.5

QFAYSNRNRFLYIIK
Binding of serum 1a to linear peptides of protein M of SARS-CoV Urbani [1]: 0.7
Binding of serum 1b to linear peptides of protein M of SARS-CoV Urbani [1]: 0.6
Binding of serum 2 to linear peptides of protein M of SARS-CoV Urbani [1]: 0.5
Binding of serum 37 to linear peptides of protein M of SARS-CoV Urbani [1]: 0.4
Binding of serum 62 to linear peptides of protein M of SARS-CoV Urbani [1]: 0.9
Binding of serum London to linear peptides of protein M of SARS-CoV Urbani [1]: 0.4
Binding of serum SARS-green to linear peptides of protein M of SARS-CoV Urbani [1]: 0.5
Binding of serum SARS-yellow to linear peptides of protein M of SARS-CoV Urbani [1]: 0.3
Recognition of the peptide by sera of SARS-CoV infected individuals, and form (linear, looped/cyclic) in which it is recognized [1]: recognized in looped/cyclic form
Binding of Control Serum Blood-Bank to Looped peptides of the protein M of SARS-CoV Urbani [2]: 0.6
Binding of Control serum Blood-bank to linear peptides of the protein M of SARS-CoV Urbani [2]: 0.6
Binding of Control serum LUMC to linear peptides of the protein M of SARS-CoV Urbani [2]: 0.8
Binding of Control serum LUMC to looped peptides of the protein M of SARS-CoV Urbani [2]: 0.8
Rabbit serum linear peptides [3]: 0.4
Rabbit serum looped peptides [3]: 1.2

QFMMSRRRLLACLCK
Binding of serum 1a to linear peptides of protein X2 [1]: 0.7
Binding of serum 1a to looped/cyclic peptides of protein X2 of SARS-CoV Urbani [1]: 0.4
Binding of serum 1b to linear peptides of protein X2 [1]: 0.5
Binding of serum 1b to looped/cyclic peptides of protein X2 of SARS-CoV Urbani [1]: 0.5
Binding of serum 2 to linear peptides of protein X2 [1]: 0.5
Binding of serum 2 to looped/cyclic peptides of protein X2 of SARS-CoV Urbani [1]: 0.5
Binding of serum 6 to linear peptides of protein X2 [1]: 0.6
Binding of serum 6 to looped/cyclic peptides of protein X2 of SARS-CoV Urbani [1]: 0.1
Binding of serum 37 to linear peptides of protein X2 [1]: 0.5
Binding of serum 37 to looped/cyclic peptides of protein X2 of SARS-CoV Urbani [1]: 0.4
Binding of serum 62 to linear peptides of protein X2 [1]: 0.6
Binding of serum 62 to looped/cyclic peptides of protein X2 of SARS-CoV Urbani [1]: 0.5
Binding of serum London to linear peptides of protein X2 [1]: 0.6
Binding of serum London to looped/cyclic peptides of protein X2 of SARS-CoV Urbani [1]: 0.2
Binding of serum SARS-green to linear peptides of protein X2 [1]: 0.4
Binding of serum SARS-green to looped/cyclic peptides of protein X2 of SARS-CoV Urbani [1]: 0.4
Binding of serum SARS-yellow to linear peptides of protein X2 [1]: 0.4
Binding of serum SARS-yellow to looped/cyclic peptides of protein X2 of SARS-CoV Urbani [1]: 0.3
Binding of Control Serum Blood-Bank to Looped peptides [2]: 0.3
Binding of Control serum Blood-bank to linear peptides [2]: 0.7
Binding of Control serum LUMC to linear peptides [2]: 0.5
Binding of Control serum LUMC to looped peptides [2]: 0.4
Binding of a rabbit serum to linear peptides [3]: 0.5
Binding of a rabbit serum to looped peptides [3]: 1.9

QLALYKGFQFICNLL
Binding of serum 1a to looped/cyclic peptide (PEPSCAN-ELISA) [1]: 0.5
Binding of serum 1b to looped/cyclic peptide (PEPSCAN-ELISA) [1]: 0.4
Binding of serum 2 to looped/cyclic peptide (PEPSCAN-ELISA) [1]: 0.4
Binding of serum 6 to looped/cyclic peptide (PEPSCAN-ELISA) [1]: 1.2
Binding of serum 37 to looped/cyclic peptide (PEPSCAN-ELISA) [1]: 0.5
Binding of serum 62 to looped/cyclic peptide (PEPSCAN-ELISA) [1]: 0.5
Binding of serum London to looped/cyclic peptide (PEPSCAN-ELISA) [1]: 1.5
Binding of serum SARS-green to looped/cyclic peptide (PEPSCAN-ELISA) [1]: 0.3
Binding of serum SARS-yellow to looped/cyclic peptide (PEPSCAN-ELISA) [1]: 0.5
Binding of Control Serum Blood-Bank to Looped peptides [2]: 0.5
Binding of Control serum Blood-bank to linear peptides [2]: 0.6
Binding of Control serum LUMC to linear peptides [2]: 0.5
Binding of Control serum LUMC to looped peptides [2]: 0.6
Binding of a rabbit serum to linear peptides [3]: 0.3
Binding of a rabbit serum to looped peptides [3]: 0.6
